ChEMBL document CHEMBL1201862, “PubChem BioAssay data set” (2004)
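Briefly, cells in 96-well plates were exposed to five compound concentrations for 48 h, and endpoints were estimated by linear interpolation. Here, GI50 denotes the concentration required for 50% inhibition of growth.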 The source made the active and inactive calls. Cut-off read from the data, not from the text of the source: active = GI50 up to about 1.1 µM and inactive = higher.

How the values were obtained:
Assay in all cases: DTP human tumour cell line panel, 48 h
[1] = system: CAKI-1
[2] = system: SF-268
[3] = system: RXF 393
[4] = system: SK-OV-3
[5] = system: OVCAR-3
[6] = system: SW-620
[7] = system: ACHN
[8] = system: TK-10
[9] = system: HL-60
[10] = system: OVCAR-4
[11] = system: HOP-92
[12] = system: SNB-75
[13] = system: HOP-62
[14] = system: SN12C
[15] = system: NCI-H226
[16] = system: SF-295
[17] = system: HCC 2998
[18] = system: MOLT-4
[19] = system: SR

SMILES	GI50 [1]	GI50 [2]	GI50 [3]	GI50 [4]	GI50 [5]	GI50 [6]	GI50 [7]	GI50 [8]	GI50 [9]	GI50 [10]	GI50 [11]	GI50 [12]	GI50 [13]	GI50 [14]	GI50 [15]	GI50 [16]	GI50 [17]	GI50 [18]	GI50 [19]
O=C1CCC2(CC1)SCCCS2	> 100 µM (inactive)	> 100 µM (inactive)	> 100 µM (inactive)	> 100 µM (inactive)	> 100 µM (inactive)	> 100 µM (inactive)	40 µM (inactive)	> 100 µM (inactive)	> 100 µM (inactive)	> 100 µM (inactive)	> 100 µM (inactive)	61.1 µM (inactive)	> 100 µM (inactive)	> 100 µM (inactive)	> 100 µM (inactive)	> 100 µM (inactive)	> 100 µM (inactive)	–	–
O=C1N[C@H](Cc2c[nH]cn2)C(=O)N2CCC[C@@H]12	> 100 µM (inactive)	> 100 µM (inactive)	> 100 µM (inactive)	> 100 µM (inactive)	> 100 µM (inactive)	> 100 µM (inactive)	> 100 µM (inactive)	> 100 µM (inactive)	> 100 µM (inactive)	> 100 µM (inactive)	> 100 µM (inactive)	65.8 µM (inactive)	> 100 µM (inactive)	> 100 µM (inactive)	–	> 100 µM (inactive)	> 100 µM (inactive)	> 100 µM (inactive)	–
CC1=C(C(=O)Nc2cc(=O)n(C)c(=O)n2C)C(c2cccc([N+](=O)[O-])c2)C(C(=O)Nc2cc(=O)n(C)c(=O)n2C)=C(C)N1	> 100 µM (inactive)	> 100 µM (inactive)	> 100 µM (inactive)	> 100 µM (inactive)	> 100 µM (inactive)	> 100 µM (inactive)	89.7 µM (inactive)	> 100 µM (inactive)	> 100 µM (inactive)	> 100 µM (inactive)	58.7 µM (inactive)	17.5 µM (inactive)	> 100 µM (inactive)	> 100 µM (inactive)	> 100 µM (inactive)	> 100 µM (inactive)	31.5 µM (inactive)	42.6 µM (inactive)	–
Cc1cc(O)c2c3c1C(=O)Oc1c(CO)c(O)c(C(=O)O)c(c1O3)C=NN=Cc1c3c(c(CO)c(O)c1C(=O)O)OC(=O)c1c(C)cc(O)c(c1O3)C=NN=C2	> 100 µM (inactive)	> 100 µM (inactive)	> 100 µM (inactive)	> 100 µM (inactive)	32.7 µM (inactive)	> 100 µM (inactive)	> 100 µM (inactive)	> 100 µM (inactive)	–	> 100 µM (inactive)	> 100 µM (inactive)	> 100 µM (inactive)	> 100 µM (inactive)	> 100 µM (inactive)	> 100 µM (inactive)	> 100 µM (inactive)	> 100 µM (inactive)	–	–
Cc1cc(Cl)cc2c1NC(=O)C2(O)CC(=O)c1ccc(Br)cc1 (centres undefined)	> 100 µM (inactive)	> 77.8 µM (inactive)	21.8 µM (inactive)	> 100 µM (inactive)	63 µM (inactive)	> 90.6 µM (inactive)	39.4 µM (inactive)	> 73.8 µM (inactive)	16.9 µM (inactive)	14.2 µM (inactive)	94.4 µM (inactive)	45.5 µM (inactive)	> 100 µM (inactive)	> 77.1 µM (inactive)	> 100 µM (inactive)	46.9 µM (inactive)	> 100 µM (inactive)	20.5 µM (inactive)	–
N#Cc1c(-c2ccc(Cl)c(Cl)c2)c(-c2ccc(Cl)c(Cl)c2)nn(CC(=O)O)c1=O	38.5 µM (inactive)	–	20.1 µM (inactive)	> 100 µM (inactive)	27.2 µM (inactive)	53.6 µM (inactive)	61.5 µM (inactive)	> 100 µM (inactive)	43.1 µM (inactive)	> 100 µM (inactive)	> 100 µM (inactive)	30.5 µM (inactive)	> 100 µM (inactive)	51.3 µM (inactive)	24 µM (inactive)	48.6 µM (inactive)	52.2 µM (inactive)	68.4 µM (inactive)	–
O=c1[nH]c2ccc([N+](=O)[O-])c(Cl)c2c2ccccc12	2.41 µM (inactive)	2.74 µM (inactive)	–	1.66 µM (inactive)	3.72 µM (inactive)	1.58 µM (inactive)	4.48 µM (inactive)	1.37 µM (inactive)	2.35 µM (inactive)	10.7 µM (inactive)	–	9.04 µM (inactive)	10.8 µM (inactive)	2.58 µM (inactive)	11.5 µM (inactive)	2.62 µM (inactive)	5.46 µM (inactive)	0.91 µM (active)	1.85 µM (inactive)
O/N=C1/C(=C/c2ccc(Cl)c(Cl)c2)CCCC1C(NO)c1ccc(Cl)c(Cl)c1 (centres undefined)	18.8 µM (inactive)	23.5 µM (inactive)	19.7 µM (inactive)	20.4 µM (inactive)	14.7 µM (inactive)	17.9 µM (inactive)	18.4 µM (inactive)	19.8 µM (inactive)	17.6 µM (inactive)	12.9 µM (inactive)	–	16.6 µM (inactive)	20.1 µM (inactive)	17.8 µM (inactive)	–	–	17.1 µM (inactive)	12.5 µM (inactive)	–
Cc1c(C(=O)CC(=O)C(=O)Nc2ccc(Cl)c(Cl)c2)[n+]([O-])c2ccccc2[n+]1[O-]	51.9 µM (inactive)	29.1 µM (inactive)	27.4 µM (inactive)	41.6 µM (inactive)	2.42 µM (inactive)	25.1 µM (inactive)	20.3 µM (inactive)	46.5 µM (inactive)	17.8 µM (inactive)	15.2 µM (inactive)	27.5 µM (inactive)	18.9 µM (inactive)	64.4 µM (inactive)	23.8 µM (inactive)	> 100 µM (inactive)	41.7 µM (inactive)	33 µM (inactive)	20.8 µM (inactive)	–
N#C/C(=C\c1c(O)cc(O)cc1O)C(N)=O	> 100 µM (inactive)	> 100 µM (inactive)	> 100 µM (inactive)	> 100 µM (inactive)	> 100 µM (inactive)	> 100 µM (inactive)	> 100 µM (inactive)	> 100 µM (inactive)	> 100 µM (inactive)	> 100 µM (inactive)	> 100 µM (inactive)	36.2 µM (inactive)	> 100 µM (inactive)	> 100 µM (inactive)	> 100 µM (inactive)	> 100 µM (inactive)	> 100 µM (inactive)	> 100 µM (inactive)	–
CCCC(C)C[C@@H](C)CC(C)/C=C(\C)c1oc(=O)c(C)c(O)c1C.CC[C@@H](C)C[C@@H](C)C[C@@H](C)/C=C(\C)c1oc(=O)c(C)c(O)c1C (some centres undefined)	13.4 µM (inactive)	14.1 µM (inactive)	13.4 µM (inactive)	–	6.78 µM (inactive)	17.7 µM (inactive)	5.57 µM (inactive)	19.5 µM (inactive)	13.6 µM (inactive)	10.4 µM (inactive)	–	13.6 µM (inactive)	18.7 µM (inactive)	15.3 µM (inactive)	15.5 µM (inactive)	12.8 µM (inactive)	12.9 µM (inactive)	–	–
Cc1c(Cl)c2ccccc2n1S(=O)(=O)c1ccccc1	58.7 µM (inactive)	64 µM (inactive)	–	–	45 µM (inactive)	38.5 µM (inactive)	38.1 µM (inactive)	65.9 µM (inactive)	25.8 µM (inactive)	36.7 µM (inactive)	15.7 µM (inactive)	19.9 µM (inactive)	65.5 µM (inactive)	–	37 µM (inactive)	46.5 µM (inactive)	33.6 µM (inactive)	37.4 µM (inactive)	32.1 µM (inactive)
CCCCCCN(N)C(=O)CC#N	> 100 µM (inactive)	> 100 µM (inactive)	16.9 µM (inactive)	> 100 µM (inactive)	79.1 µM (inactive)	> 100 µM (inactive)	95.5 µM (inactive)	> 100 µM (inactive)	–	48.4 µM (inactive)	53 µM (inactive)	> 100 µM (inactive)	> 100 µM (inactive)	> 100 µM (inactive)	> 100 µM (inactive)	–	> 100 µM (inactive)	35.5 µM (inactive)	–
C/C(=N/N)c1ccc2[nH]c3c(C)cc([N+](=O)[O-])c(C)c3c2c1	> 10 µM (inactive)	8.22 µM (inactive)	–	–	14.9 µM (inactive)	7.53 µM (inactive)	9.38 µM (inactive)	12.2 µM (inactive)	> 100 µM (inactive)	14.8 µM (inactive)	–	22.9 µM (inactive)	8.07 µM (inactive)	3.95 µM (inactive)	14.3 µM (inactive)	17.1 µM (inactive)	17.5 µM (inactive)	2.79 µM (inactive)	5.83 µM (inactive)
CC(C(=O)c1ccc(Cl)cc1)C1OC(=O)C(Cl)=C1Cl (centres undefined)	> 10 µM (inactive)	30.3 µM (inactive)	19.7 µM (inactive)	> 100 µM (inactive)	28.5 µM (inactive)	34.5 µM (inactive)	41.3 µM (inactive)	37.2 µM (inactive)	19 µM (inactive)	25.7 µM (inactive)	–	22.1 µM (inactive)	> 100 µM (inactive)	24.6 µM (inactive)	68.2 µM (inactive)	> 100 µM (inactive)	26.6 µM (inactive)	24.8 µM (inactive)	–
Cc1cc(Cl)ccc1NC(=O)/C(=N\NC(C)(C)C)C(C#N)c1nc(-c2ccc([N+](=O)[O-])cc2)cs1 (centres undefined)	> 100 µM (inactive)	> 100 µM (inactive)	–	> 100 µM (inactive)	> 100 µM (inactive)	> 100 µM (inactive)	> 100 µM (inactive)	> 100 µM (inactive)	> 100 µM (inactive)	> 100 µM (inactive)	> 100 µM (inactive)	> 100 µM (inactive)	> 100 µM (inactive)	> 100 µM (inactive)	> 100 µM (inactive)	> 100 µM (inactive)	> 100 µM (inactive)	5.79 µM (inactive)	> 100 µM (inactive)
